Experimental data: patent US20120270183A1, “METHOD OF TREATING AND/OR PREVENTING CONDITIONS CAUSED BY MICROORGANISMS USING AN ORAL LIGHT DEVICE” (COLGATE-PALMOLIVE COMPANY, priority 2009, published 2012)
Entries after “also recorded” stand apart in the source; their conditions may differ.

tested on: biofilm of A. naeslundi; test: Biofilm reduction by photosensitizer plus light; type: cell-based; details: 0.1% photosensitizer in the presence of light
Experimental: Bacterial biofilms (24 h old) were treated with the photosensitizers or photo-triggered actives described in the tables below at a concentration less than their minimum inhibitory concentration (MIC). The actives were either pre-incubated before light exposure for 2 s to 15 min, typically less than 2 min, or administered at the same time the biofilm was exposed to the light. The bacteria were irradiated at a set wavelength for 2 s to 15 min (typically less than 2 min) at an energy dose between 1-450 J/cm^2. Optical power densities typically ranged from 1-500 mW/cm^2. Light was either pulsed or provided in one continuous light exposure. Pulsed light treatments were preferred for high optical energy treatments.
On a biofilm of A. naeslundi, the impact of four “photosensitizers” (0.1% concentration) in the presence of light was evaluated. MIC typically ranged from 0.0001% (w/v) to 1% (w/v). The percent biofilm reduction is tabulated below.

| Structure (SMILES) | Biofilm reduction compared to light alone (in words) |
| --- | --- |
| CN(C)c1ccc(C(=C2C=CC(=[N+](C)C)C=C2)c2c(O)c(S(=O)(=O)[O-])cc3cc(S(=O)(=O)[O-])ccc23)cc1.[Na+] [Lissamine Green B] | increased biofilm reduction compared to light alone |
| Cc1cc2nc3c(=O)[nH]c(=O)nc-3n(C[C@H](O)[C@H](O)[C@H](O)CO)c2cc1C [Riboflavin] | increased biofilm reduction compared to light alone |
| O=C([O-])C1=NN(c2ccc(S(=O)(=O)[O-])cc2)C(=O)C1N=Nc1ccc(S(=O)(=O)[O-])cc1.[Na+].[Na+].[Na+] (stereo not drawn) [Tartrazine] | increased biofilm reduction compared to light alone |
| CCN(Cc1cccc(S(=O)(=O)[O-])c1)c1ccc(C(=C2C=CC(=[N+](CC)Cc3cccc(S(=O)(=O)[O-])c3)C=C2)c2ccc(O)cc2S(=O)(=O)[O-])cc1.[Na+].[Na+] [Fast Green, Fast Green FCF] | increased biofilm reduction compared to light alone |
| COc1cc(S(=O)(=O)[O-])c(C)cc1N=Nc1c(O)ccc2cc(S(=O)(=O)[O-])ccc12.[Na+].[Na+] [Allura Red, Allura Red AC] | increased biofilm reduction compared to light alone |

tested on: TNFα of HEPM cells stimulated by IL-1β; test: Cytokine (TNFα) concentration in IL-1β stimulated cell culture after light plus dye; type: cell-based, human; details: Fast Green at 1000 ppm combined with light at 625 nm for 2 minutes, 9 mW/cm^2, 1.1 J/cm^2
Experimental: Cells used in this example include human embryonic palatal mesenchymal (HEPM) cells and oral keratinocytes OBA9 cells. The embodiments also can be used with other cells such as human gingival fibroblasts (HGF). Cells were seeded in 24-well plates and cultured until reaching a confluence above 80%. The confluent-stage cells were treated with stimulants such as IL-1β followed by light irradiation alone, or light irradiation combined with GRAS photosensitizing dye. The cells were either pre-incubated in photosensitizing dye before light exposure, or administered at the same time of light exposure. The cells were incubated in photosensitizing dyes for varied amounts of time, the concentration of photosensitizing dyes were varied, and the cell were irradiated with light for varied amounts of time per exposure, as well as irradiation either one time or multiple times, as described below. After irradiation, the cells were incubated at 37° C. The cell culture media was collected after a certain amount of time for cytokine analysis.
The results tabulated below reveal that visible light (various wavelength, 380-700 nm) alone and photosensitizing dye irradiated with visible light (various wavelength, 380-700 nm) have anti-inflammation effect. […]

| Structure (SMILES) | Effect on TNFα concentration (in words) |
| --- | --- |
| CCN(Cc1cccc(S(=O)(=O)[O-])c1)c1ccc(C(=C2C=CC(=[N+](CC)Cc3cccc(S(=O)(=O)[O-])c3)C=C2)c2ccc(O)cc2S(=O)(=O)[O-])cc1.[Na+].[Na+] [Fast Green, Fast Green FCF] | can decrease pro-inflammation cytokine TNFα concentration; also recorded: can reduce concentration of TNFα |
